Experimental findings from US20240226126A1, “COMPOSITIONS FOR TREATMENT OF PSORIASIS” (The Board of Trustees of the Leland Stanford Junior …, priority 2021, published 2024) are described below.

“Also recorded” adds a separate entry of the source. Where two headings read alike, the source gives them in different places.

The test system of assay [1] is Human Primary keratinocytes. The assay can be described thus: Cytokine response of TNF-α/IL-17 stimulated keratinocytes (Luminex). Type of assay: cell-based. The conditions noted are these: TNF-α 10 ng/ml and IL-17 10 ng/ml, 48 hours. As for the experimental part:
Human Primary keratinocytes were purchased from Thermo Fisher. Keratinocytes were cultured in medium 154 supplemented with HKGS, split using TrypLE and neutralized using DMEM supplemented with 10% FBS. Cells were split to keep 20-80% confluency and not passaged above passage 5. Keratinocytes were detached using TrypLE Express, Trypsin Neutralizer solution was added and the detached cells transferred to a sterile conical tube. Cells were resuspended in 15 ml medium with HKGS supplemented (cat no S-001-K) but without hydrocortisone. The cells were pipetted up and down with a 10 ml pipette to ensure a homogeneous cell suspension.
Human primary keratinocytes detached as described above, were resuspended in PBS at 1×10^6 cells/ml and filtered through a 35 μm cell strainer. Cells were stained with CellTrace Violet at 5 μM for 20 minutes at 37° C., 5% CO2. After staining, DMEM supplemented with 10% FBS was added to stop staining and cells was incubated at 37° C., 5% CO2 for 5 minutes. After incubation, cells were washed with PBS 1× and resuspended in Medium 154 supplemented with HGKS without hydrocortisone at 6×10^5 cells/ml and 200 μl was added to wells in a 96-well flat bottom cell culture plate. Cells were incubated overnight at 37° C., 5% CO2/95% air. […]
Supernatants were analyzed for cytokines IL-6, IL-8, and CXCL1 using Luminex. […] Samples were analyzed on a Bio-Rad Luminex 200 analyzer. […]

The test system of the next assay is Rac1V12 transgenic mice. The assay can be described thus: Rac1V12 transgenic mouse model of psoriasis. Format: in vivo. As for the experimental part: Transgenic mice and mice for xenografting Rac1V12-transgenic mice were generated as previously described. For xenografting, NOD/SCID mice were used (NOD.CB17-PrkdcSCID/J mice; stock 001303; The Jackson Laboratory).
Topical formulation and administration. A rudimentary preparation of benzamil was tested using benzamil (6 mg/ml, benzamil, Sigma) in 100% ethanol. This solution was then topically applied through submerged and air-drying tails of mice under anesthesia, once daily for 15 days. Similarly, benzamil was suspended in water (2 mg/ml), then mixed into Vaseline, vortexed and centrifuged until a clear solution was obtained. A final formulation of benzamil is described in supplementary material and methods. For intraperitoneal injections, benzamil was dissolved at 2 mg/ml in water, and 0.7, 1.4 or 2.1 mg/kg was injected IP daily. For osmotic pump injections, Alzet osmotic pumps were used, (Alzet minipump 1002). Pumps were filled with 100 ul of benzamil in ethanol under sterile conditions, at a final dose of 2 mg/kg/day, and subcutaneous, inter-scapular implantations were performed under anesthesia. Pumps were replaced once for a total of 2×14 days treatment period.
Topical formulation of benzamil. A labrasol (88%) based formulation of benzamil was generated containing benzamil (1%, w/w), span-20 (1%) and cetyltrimethylammonium bromide (CTAB) (10%). Constituents were dissolved in ethyl alcohol, mixed well using vortex and sonication at 37° C. until a clear solution was obtained. Ethyl alcohol was evaporated in a Speedvac. The residue was suspended in Labrasol and homogenized to obtain the final formulation.
For a final formulation of benzamil (for use on human reconstructed skin), 52 ml water, 5.2 ml glycerin, 9.7 ml rice bran oil, 4 ml caprylic aid triglyceride, 6.2 g cetearyl alcohol, 8.6 g 50/50 mixture of cetearyl glucoside and cetearyl alcohol and 3.5 g cocoa butter was heated to 75° C. until dissolved, removed from heat, mixed using Cimarec 2 magnetic stir. At 45° C. […]

Assay [2] concerns primary psoriasis keratinocytes (PSOKC). The assay can be described thus: MTT proliferation assay, primary psoriasis keratinocytes. Type of assay: cell-based, human. The conditions noted are these: for proliferation in PSOKCs: 10 μM. On the procedure:
MTT assays. 10000 third-passage adult keratinocytes per well, or 25000 for IC50 curves, were seeded on a collagen-coated 96 well plate, and incubated with 50/50 (Medium 154 and Keratinocyte—SFM medium, Invitrogen with Human Keratinocytes Growth Supplement, S-001-5, Invitrogen, and Medium 154 supplement M-154-6 500, Invitrogen) with 1% antibiotic-antimycotic (30-004-CI, Mediatech Inc) for 48 h. 10 ul MTT reagent (MTT proliferation assay, ATCC, Manassas, US) was added for 4 h, 100 ul detergent was added to each well for 4 hours, and absorbance read at 570 nm (Spectramax M5, Molecular Devices, US), normalized to cell-free control absorbance.
Small molecule inhibition. All small molecules were diluted into concentrated stock solutions (all except YM-244769 were made into 50 mM stock solutions) in DMSO, and stored in aliquots at −20 C. Aliquots were thawed, then diluted to a 1000× stock concentration, then added to media so that final DMSO concentration is 0.1%. All in vitro studies entailing small molecule inhibition were accessed over 24 hour incubation period.
Statistical analysis. Microrarray data was analyzed using the affy package from Bioconductor on R statistical software package. Other statistical analysis was performed using Graphpad Prism 7.03, and statistical tests (unpaired t-tests with Welch correction, paired t-test, Mann-Whitney unpaired test, and linear regression analysis with goodness of fit) and sample sizes are outlined in each figure legend. Components of signature for goodness of fit by linear regression analysis were extrapolated from the benzamil rank aggregation algorithm All error bars denotes standard error of the mean. For IC50 calculations, MTT data absorbance values were calculated for percent change from the 0.1% DMSO vehicle condition. A non-linear fitted curve [log (inhibitor) vs response (three parameters)] in GraphPad Prism 7 was used to determine IC50 values. For mouse and xenograft experiments, ad hoc power calculations were based on prior phenotypic characterization of these models. Transgenic mice were randomized from same litters when possible, or based on similar phenotypic disease severity, and all experiments were run in triplicates or more. Sample size of xenografts mice studies were based on patient sample availability and a predicted graft take rate of 80%. For all comparisons, p values of less than 0.05 were considered statistically significant. All tests were two-tailed unless specified in figure legends.
(§1) Small molecule inhibitors. 10 uM benzamil hydrochloride hydrate (Sigma B2417), 10 uM amiloride hydrochloride (Tocris 890) 10 uM zoniporide dihydrochloride (Tocis 2727), 10 nM YM-244769 (Tocris 4544), 10 uM SEA 0400 2-[4-[(2,5-944 difluorophenyl)methoxy]phenoxy]-5-ethoxyaniline) (Tocris 6164), 10 uM triamterene (Sigma-Aldrich T4143).
A general note: Tetrazolium dyes change colour on reduction, which living cells bring about.

Assay [3] has as its system V12KC (primary keratinocytes transduced with V12 Rac1). The assay can be described thus: Proliferation of V12 Rac1 transduced primary keratinocytes vs LacZ control. Format: cell-based. The conditions noted are these: Homo sapiens, Keratinocyte.
Another assay deals with PSOKCs. The assay can be described thus: Intracellular pH assay (pHrodo red). Type of assay: cell-based, human. The conditions noted are these: PSOKCs / primary keratinocytes overexpressing Rac1, 24 h, 10 uM; listed as Zoniporide. On the procedure:
Intracellular pH assays 25,000 were seeded per well of 96-well plate and allowed cells to settle and recover for 24 hrs. Small molecules or 0.1% DMSO vehicle control was added to culture media for 24 hours (n=6-8). Cells were washed once with 1× Live Cell Imaging Solution (LCIS) (ThermoFisher A14291DJ), and then incubated with pHrodo red (ThermoFisher P35372), PowerLoad (ThermoFisher P35372), in LCIS with added 1:5000 Hoechst (Life Technologies) for 30 min at 37 C 5% CO2 with corresponding small molecule added at same concentration used for 24 hour incubation.
as §1
Intracellular pH assays and standard curves. Cells were also washed 3 times with 1×LCIS with the last wash of 100 uL kept on cells. For generation of pH standard curve, additional wells (n=6-8) were treated as described with an addition of 0.1% DMSO vehicle for 24 hours. […] The 96-well plate was then read on a fluorescence microplate reader (Spectramax M5, Molecular Devices) with excitation/emission of […] and 361/497. […]

With `C=C(CC)C(=O)c1ccc(OCC(=O)O)c(Cl)c1Cl` [Ethacrynic acid], the “concentration with decrease of IL-8” value in assay [1] is 10 µM.
As to `Cc1cc(I)ccc1Nc1c(C(=O)NOCC2CC2)cc(F)c(F)c1F` [PD198306], in assay [1], the “concentration with decrease of CXCL1” value is on record as 100 nM.
Turning to `N=C(N)NC(=O)c1nc(Cl)c(N)nc1N` [amiloride], the psoriasiform hyperplasia result with Rac1V12 transgenic mice (systemic) is “failed to demonstrate any effect”. Also, the “proliferation in PSOKCs” value in assay [2] is on record as “not achieved by amiloride or triamterene; also recorded: not amiloride or triamterene reduced proliferation”.
For the compound `NC(=NCc1ccccc1)NC(=O)c1nc(Cl)c(N)nc1N` [benzamil], the IC50 in assay [3] is 990 nM; in assay [2] (cells from 5 psoriasis donors, read-out: IC50 on proliferation), around 1000 nM; in assay [2] (range across donors, read-out: IC50 range in five psoriasis donor primary keratinocyte cultures), 0.1 to 4600 nM.
Consider `C[C@H]1C[C@H]2[C@@H]3CCC4=CC(=O)C=C[C@]4(C)[C@@]3(F)[C@@H](O)C[C@]2(C)[C@@]1(O)C(=O)CCl` [clobetasol], for which the epidermal thickness result with Rac1V12 transgenic mice (topical, compared to vehicle) was “reduction in epidermal thickness”.
Consider `Nc1nc(N)c2nc(-c3ccccc3)c(N)nc2n1` [triamterene], for which, in assay [2], the “proliferation in PSOKCs” value is given as “not achieved by amiloride or triamterene; also recorded: not amiloride or triamterene reduced proliferation”.
Turning to `N=C(N)NC(=O)c1cnn(-c2cccc3ncccc23)c1C1CC1` [zoniporide], the “proliferation in PSOKCs” value in assay [2] is on record as “recapitulated benzamil's significant capacity to reduce proliferation”; in assay [2] (listed as Zoniporide) it was “reduced proliferation in PSOKCs to levels observed by Benzamil”. In the assay on PSOKCs, the “intracellular pH” value is on record as “significantly reduced intracellular pH”.
Bromocriptine: the “signs of improvement (scaling, ulceration, erythema, epidermal thickening)” value in the assay with Rac1V12 transgenic mice (intraperitoneal 10 mg/kg every other day, 20 treatments, vs baseline) is “improved after treatment”.
